The results in this text go back to PubChem BioAssay (NCI).

Each structure is given as a SMILES string.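 Cells were grown in 96-well plates and exposed to each compound for 48 hours at five concentrations; endpoints were interpolated linearly between bracketing concentrations, or set to the highest concentration if not reached. The concentration for 50% growth inhibition is given as GI50. Definition used: TGI = concentration required for complete inhibition of growth.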

Among the test systems are EKVX NSCLC; HS 578T breast; HCT-116 colon; ACHN renal; SK-MEL-5 melanoma; M14 melanoma; SR leukemia; K-562 leukemia; SW-620 colon; IGROV1 ovarian.
What all share (experiment): inhibition of tumour cell growth, NCI panel, 48 h

As to `CCOC(=O)CCC(NC(=O)Cc1ccc(Oc2nc3ccccc3nc2-c2ccccc2)cc1)C(=O)OCC` (configuration not stated), the TGI in the assay with EKVX NSCLC, in the assay with HS 578T breast, with HCT-116 colon, in the assay on ACHN renal, in the assay on SK-MEL-5 melanoma and in the assay on M14 melanoma was above 100 µM each time. Further, the TGI in the assay with SR leukemia, with K-562 leukemia and in the assay with SW-620 colon was above 100 µM each time.

Regarding `CN[C@@H](C)[C@@H](O)c1ccccc1`, the TGI with EKVX NSCLC, in the assay with HS 578T breast, with HCT-116 colon, with ACHN renal, with IGROV1 ovarian and with SK-MEL-5 melanoma was above 100 µM in each case. Besides, the TGI in the assay on M14 melanoma, in the assay with K-562 leukemia and with SW-620 colon was above 100 µM in each case.

Consider `O=[N+]([O-])c1ccc(N2N=C(c3ccc4ccccc4c3O)CC2c2ccc(Cl)cc2)c([N+](=O)[O-])c1` (configuration not stated), for which the TGI in the assay with HS 578T breast was above 100 µM; in the assay with HCT-116 colon, above 100 µM; with ACHN renal, above 100 µM; with IGROV1 ovarian it was above 100 µM; in the assay on SK-MEL-5 melanoma it was 63.3 µM; with M14 melanoma it was above 100 µM. For the same molecule, the TGI in the assay on SR leukemia was 40.6 µM; with K-562 leukemia, 52 µM; with SW-620 colon it was above 100 µM.

Turning to `C[n+]1c2ccccc2c(/C=N\NS(=O)(=O)c2ccc(Cl)cc2)c2ccccc21`, the TGI in the assay with EKVX NSCLC, with HCT-116 colon, with ACHN renal, with IGROV1 ovarian, in the assay with SK-MEL-5 melanoma and with M14 melanoma was above 100 µM in each case. In addition, the TGI in the assay on K-562 leukemia and in the assay with SW-620 colon was above 100 µM in each case.

As for `CC(=O)OCCCCn1cc(Cn2ccc(=O)n(Cc3cn(CCCCOC(C)=O)nn3)c2=O)nn1`, the TGI in the assay with EKVX NSCLC, with HS 578T breast, with HCT-116 colon, with ACHN renal, with IGROV1 ovarian and with SK-MEL-5 melanoma was above 100 µM throughout. Moreover, the TGI with M14 melanoma and in the assay with SW-620 colon was above 100 µM each time.

Turning to `O=[N+]([O-])c1ccc([N+]2=NC(c3ccccc3)=NN(c3ccccc3)C2)cc1`, the TGI in the assay with HCT-116 colon, in the assay with ACHN renal, with IGROV1 ovarian, with SK-MEL-5 melanoma, in the assay on M14 melanoma and in the assay with SR leukemia was above 100 µM in each case. The TGI in the assay with K-562 leukemia and in the assay with SW-620 colon was above 100 µM throughout.

Consider `Nc1nc(=O)n(C2OC(CO)C(O)C2O)c2ncc(-c3ccc(-c4ccccc4)cc3)nc12` (configuration not stated), for which the TGI in the assay with EKVX NSCLC, in the assay on HS 578T breast, with HCT-116 colon, with ACHN renal, with IGROV1 ovarian and with SK-MEL-5 melanoma was above 100 µM throughout. The TGI with SR leukemia, in the assay with K-562 leukemia and in the assay on SW-620 colon was above 100 µM in each case.

Take `CN(C)c1ccc(/C=C/C(=O)O)cc1`: the TGI in the assay with EKVX NSCLC, in the assay with HCT-116 colon, in the assay on ACHN renal, in the assay on IGROV1 ovarian, in the assay with SK-MEL-5 melanoma and with M14 melanoma was above 100 µM throughout. Besides, the TGI in the assay on K-562 leukemia and with SW-620 colon was above 100 µM in each case.

In the case of `CCN(CC)CCOc1ccc(C(O)(Cc2ccc(OC)cc2)c2ccccc2)cc1` (configuration not stated), the TGI was 80.6 µM in the assay with EKVX NSCLC; 26.8 µM in the assay on HCT-116 colon; 65.3 µM in the assay on ACHN renal; 87.8 µM in the assay on IGROV1 ovarian; 26.1 µM in the assay on SK-MEL-5 melanoma; 27.8 µM with M14 melanoma. Further, the TGI in the assay on SR leukemia turned out to be 32 µM; in the assay on K-562 leukemia, 18.6 µM; in the assay on SW-620 colon it was 34.5 µM.

Take `CCC(=O)/C(=C\I)c1ccccc1`: the TGI in the assay on EKVX NSCLC is 33.6 µM; with HS 578T breast, above 100 µM; in the assay with HCT-116 colon, 3.3 µM; in the assay on IGROV1 ovarian, 4.28 µM; with M14 melanoma, 4.72 µM; in the assay with K-562 leukemia it was above 100 µM.

As to `COc1ccc2c(c1)c1nn(CCN3CCCCC3)c3ccc4c(=O)n(CCN(C)C)c(=O)n2c4c13`, the TGI with EKVX NSCLC was 0.0406 µM; in the assay on HS 578T breast it was 0.412 µM; with HCT-116 colon it was 0.0213 µM; in the assay on ACHN renal, 0.243 µM; in the assay with IGROV1 ovarian, below 0.0174 µM; in the assay with SK-MEL-5 melanoma, 0.283 µM. The TGI stood at 0.109 µM with M14 melanoma, 0.6 µM with K-562 leukemia and 0.0751 µM in the assay with SW-620 colon.

As for `CCOc1ccc(/C=C2\NC(=S)N(/C=C3\C(=O)Oc4ccccc4C3=O)C2=O)cc1`, the TGI in the assay on EKVX NSCLC came out at 70 µM; in the assay on HS 578T breast, 96.2 µM; with HCT-116 colon, 39.9 µM; in the assay on ACHN renal, 56.3 µM; in the assay on IGROV1 ovarian it was 61.7 µM; in the assay with SK-MEL-5 melanoma, 41.5 µM. Besides, the TGI is 92.4 µM with M14 melanoma and above 100 µM with SW-620 colon.

Regarding `Nc1ccc2ccc(-c3ccc[nH]3)nc2n1`, the TGI in the assay on EKVX NSCLC, in the assay on HCT-116 colon, in the assay on ACHN renal, in the assay with IGROV1 ovarian, in the assay with SK-MEL-5 melanoma and in the assay on M14 melanoma was above 100 µM throughout. Also, in the assay on SW-620 colon, the TGI was above 100 µM.

Turning to `COP(=O)(O)C(N)Cc1c[nH]c2ccccc12` (configuration not stated), the TGI with HS 578T breast, with HCT-116 colon, with ACHN renal, in the assay on IGROV1 ovarian, in the assay on SK-MEL-5 melanoma and with M14 melanoma was above 100 µM throughout. Further, the TGI with SR leukemia, in the assay with K-562 leukemia and in the assay with SW-620 colon was above 100 µM each time.

For the molecule `CC1=CCC[C@H]2[C@](C)(CC3=CC(=O)C(Sc4ccccc4)=CC3=O)[C@@H](C)CC[C@]12C`, the TGI turned out to be 38.9 µM in the assay on EKVX NSCLC; 30.3 µM in the assay with HCT-116 colon; 35.3 µM with ACHN renal; 30.4 µM in the assay with IGROV1 ovarian; 30.9 µM with SK-MEL-5 melanoma; 33.7 µM in the assay on M14 melanoma. Besides, the values for the TGI in the assay on SR leukemia, in the assay on K-562 leukemia and in the assay with SW-620 colon were 48.3 µM, 41.2 µM and 30.5 µM, respectively. Further, the figures for the GI50 in the assay on IGROV1 ovarian and with K-562 leukemia were 16.2 µM and 19.5 µM, respectively.
